Measurements from patent US20060205677A1 (XenoPort, Inc., priority 2005, published 2006).

What was measured:
[1] = system: Calu-6 cells; assay: In vitro cytotoxicity (Alamar blue growth inhibition), Calu-6; type: cell-based, human; conditions: Calu-6, 48 h
Experimental: (§1) The effect of experimental compounds on cancer cell growth and viability was measured in a panel of human cancer cells grown in vitro. All cancer cell lines were obtained from the American […]. Cells were maintained in the following media: TUR, H69AR, Calu-6, ME180, and PC3 cells were grown in RPMI medium containing 4.5 g/L glucose, 10% FBS, 4 mM L-glutamine, and 1 mM sodium pyruvate); and HT29 cells were grown in DMEM with 4.5 g/L glucose, 10% FBS, and 6 mM L-glutamine. All cells were grown at 37° C. in 5% CO2 and passaged bi-weekly.
(§2) For cytoxicity studies, cells were seeded into 96-well clear-bottom microtiter plates at the following densities: TUR (7,500 cells/well), HT29 (5,000 cells/well), H69AR (10,000 cells/well), Calu-6 (15,000 cells/well), and ME180 (2,500 cells/well). Cells were maintained at 37° C. with 5% CO2 for 24 hours prior to addition of various experimental compounds. Each condition was measured in triplicate. For compounds dissolved in DMSO, the final DMSO concentration in each well and in the non-drug treated control cells was constant and below 1% in all studies. The number of viable cells was determined after 24, 48, and 72 hours using Alamar blue fluorescence. Briefly, Alamar blue (10 mM) was added to each well for 4 hours, and the number of viable cells estimated by measuring the fluorescence of reduced Alamar blue (530 nm excitation, 590 nm emission). To correct for background fluorescence, cells were treated with 100% DMSO to eliminate all viable cells. The effect of drug on cell growth was determined by calculating the fraction of live cells treated with drug compared to untreated cells: (F1drug treated−F1DMSO killed)/(F1untreated−F1DMSO killed).

[2] = system: H69AR cells; assay: In vitro cytotoxicity (Alamar blue growth inhibition), H69AR; type: cell-based, human; conditions: 48 h
Experimental: as §1, §2

[3] = system: HT29 cells; assay: In vitro cytotoxicity (Alamar blue growth inhibition), HT29; type: cell-based, human; conditions: HT29, 48 h
Experimental: as §1, §2

[4] = system: ME180 cells; assay: In vitro cytotoxicity (Alamar blue growth inhibition), ME180; type: cell-based, human; conditions: ME180, 48 h
Experimental: as §1, §2

[5] = system: PC3 cells; assay: In vitro cytotoxicity (Alamar blue growth inhibition), PC3; type: cell-based, human; conditions: PC3, 48 h
Experimental: as §1, §2

[6] = system: TUR cells; assay: In vitro cytotoxicity (Alamar blue growth inhibition), TUR; type: cell-based, human; conditions: 48 h
Experimental: as §1, §2

[7] = system: PC3 (Prostate) xenograft; assay: In vivo tumor growth inhibition, mouse xenograft, PC3; design: species or system nude athymic CD-1 mice; conditions: 80 mg/kg (2/week), IP
Experimental: (§3) Tumor xenograft studies were performed using nude athymic CD-1 mice (Charles River Laboratories). Human cancer cells (5×10^6 PC3, 5×10^6 HT29, 10^7 Calu-6, and 5×10^6 ME180) were implanted in the hind flank of nude mice. Tumor growth was measured using calipers and tumor volume calculated using the formula: (width^2×(length/2)). Tumor volume was measured 3 days per week. Animal weight was measured 3 days per week to assess compound toxicity.
Compounds were tested for in vivo tumor growth inhibition as follows. Animals bearing tumors 100-200 mg were sorted into groups (5-8 animals) with similar average tumor mass per group. Drug doses were administered by intraperitoneal (IP) injection (0.5 mL). Test compounds were dissolved in phosphate buffered saline (PBS) and concentration adjusted for animal weight. Actual drug concentrations in formulated doses were verified by quantitative nitrogen detection. Animals were dosed every 7 days for 21 days in most studies. In several studies, animals were dosed twice weekly (days 0, 4, 7, 10, 14, etc.). Tumor volume and animal weight were measured on days 0, 2, 4, 7, 9, 11, 14, 16, 18, 21, 23, 25, and 28. […] Tumor volume at the end of the study was calculated as a percentage of the tumor volume on day 0. […]

[8] = system: HT29 (Colon) xenograft; assay: In vivo tumor growth inhibition, mouse xenograft, HT29; design: species or system nude athymic CD-1 mice; conditions: IP
Experimental: as §3
(§4) Compounds were tested for in vivo tumor growth inhibition as follows. Animals bearing tumors 100-200 mg were sorted into groups (5-8 animals) with similar average tumor mass per group. Drug doses were administered by intraperitoneal (IP) injection (0.5 mL). Test compounds were dissolved in phosphate buffered saline (PBS) and concentration adjusted for animal weight. Actual drug concentrations in formulated doses were verified by quantitative nitrogen detection. Animals were dosed every 7 days for 21 days in most studies. In several studies, animals were dosed twice weekly (days 0, 4, 7, 10, 14, etc.). Tumor volume and animal weight were measured on days 0, 2, 4, 7, 9, 11, 14, 16, 18, 21, 23, 25, and 28. At the end of the study, animal blood was removed for analysis of liver and kidney function (BUN, creatine, AST and ALT; analytical measurements performed by Quality Clinical Labs). Tumor volume at the end of the study was calculated as a percentage of the tumor volume on day 0. The percent tumor growth inhibition was obtained from the ratio of the percentage tumor volume increase in drug treated animals to the percentage tumor volume increase in saline treated animals.

[9] = system: Calu-6 (Lung) xenograft; assay: In vivo tumor growth inhibition, mouse xenograft, Calu-6; design: species or system nude athymic CD-1 mice; conditions: 100 mg/kg, IP
Experimental: as §3, §4

[10] = system: ME180 (Cervical) xenograft; assay: In vivo tumor growth inhibition, mouse xenograft, ME180; design: species or system nude athymic CD-1 mice; conditions: 100 mg/kg, IP
Experimental: as §3, §4

[11] = Determination of maximum tolerated dose (MTD); type: in vivo, nude mice; conditions: ratio of maximum tolerated dose to minimally effective dose
Experimental: To determine the maximum tolerated doses for compound (54) relative to clinically used platinum anticancer agents, nude mice were injected with increasing drug doses (0.5 mL, intraperitoneally) on days 0, 7, and 14. […] The therapeutic index of a given drug is defined as the ratio of the maximum tolerated dose to the minimally effective dose.

[12] = system: HT29 cells; assay: Effect of sugar transport inhibitor (phloridzen) on in vitro cytotoxicity; type: cell-based, human; conditions: 48 hours
Experimental: as §1, §2

Compound | GI50 [1] | GI50 [2] | GI50 [3] | GI50 [4] | GI50 [5] | GI50 [6] | further results
O=C(CCC1C(=O)[O][Pt]2([NH]C3CCCCC3[NH]2)[O]C1=O)NC1OC(CO)C(O)C(O)C1O [(42), [1R,2R-Cyclohexanediamine-N,N′][{2-(β-D-Galactopyranos-1-ylamido)ethyl}propanedioato(2-)-O,O′]Platinum (II)] | 131 µM | 188 µM | 860 µM | 4 µM | 45 µM | 22 µM | –
O=C(CCC1C(=O)[O][Pt]2([NH]C3CCCCC3[NH]2)[O]C1=O)NC1OC(CO)C(O)C(O)C1O [(45), [1R,2R-Cyclohexanediamine-N,N′][{2-(β-D-Mannopyranos-1-ylamido)ethyl}propanedioato(2-)-O,O′]Platinum (II)] | – | 84 µM | – | – | – | 28 µM | –
O=C(CCCC1C(=O)[O][Pt]2([NH]C3CCCCC3[NH]2)[O]C1=O)NC1OC(CO)C(O)C(O)C1O [(51), [1R,2R-Cyclohexanediamine-N,N′][{3-(β-D-Galactopyranos-1-ylamido)propyl}propanedioato(2-)-O,O′]Platinum (II)] | 255 µM | 286 µM | 374 µM | 5 µM | 84 µM | 37 µM | –
N.N.O=C(CCCC1C(=O)[O][Pt][O]C1=O)NCC1OC(O)C(O)C(O)C1O [(60), [Diammine][{3-(α,β-D-Galactopyranos-6-ylamido)propyl}propanedioato(2-)-O,O′]Platinum (II)] | – | 79 µM | – | – | – | 117 µM | –
O=C(CCCC1C(=O)[O][Pt]2([NH]C3CCCCC3[NH]2)[O]C1=O)NCC1OC(O)C(O)C(O)C1O [(66), [1R,2R-Cyclohexanediamine-N,N′][{3-(α,β-D-Glucopyranos-6-ylamido)propyl}propanedioato(2-)-O,O′]Platinum (II)] | 163 µM | 102 µM | 222 µM | 7 µM | – | 15 µM | –
COC1OC(CNC(=O)CCCC2C(=O)[O][Pt]3([NH]C4CCCCC4[NH]3)[O]C2=O)C(O)C(O)C1O [(67), [1R, 2R-Cyclohexanediamine-N,N′][{3-(Methyl-α-D-Glucopyranos-6-ylamido)propyl}propanedioato(2-)-O,O′]Platinum (II)] | 68 µM | 185 µM | 234 µM | 5 µM | – | 21 µM | –
O=C1[O][Pt]2([NH]C3CCCCC3[NH]2)[O]C(=O)C1CCNC(=O)C1OC(O)C(O)C(O)C1O [(74), [1R,2R-Cyclohexanediamine-N,N′][{2-(α,β-D-Glucuron-6-yl-amido)ethyl}propanedioato(2-)-O,O′]Platinum (II)] | – | 53 µM | – | – | – | 53 µM | –
O=C1[O][Pt]2([NH]C3CCCCC3[NH]2)[O]C(=O)C1CCNC(=O)C1OC(O)C(O)C(O)C1O [(77), [1R, 2R-Cyclohexanediamine-N,N′][{2-(α,β-D-Galacturon-6-yl-amido)ethyl}propanedioato(2-)-O,O′]Platinum (II)] | – | 38 µM | – | – | – | 38 µM | –
COC1OC(C(=O)NCCC2C(=O)[O][Pt]3([NH]C4CCCCC4[NH]3)[O]C2=O)C(O)C(O)C1O [(78), [1R,2R-Cyclohexanediamine-N,N′][{2-(Methyl-β-D-Glucuron-6-yl-amido)ethyl}propanedioato(2-)-O,O′]Platinum (II)] | – | 76 µM | 103 µM | – | – | 15 µM | –
O=C(CCCC1C(=O)[O][Pt]2([NH]C3CCCCC3[NH]2)[O]C1=O)NC1C(O)OC(CO)C(O)C1O [(79), [1R,2R-Cyclohexanediamine-N,N′][{3-(α,β-D-Glucopyranos-2-yl-amido)propyl}propanedioato(2-)-O,O′]Platinum (II)] | – | 55 µM | 124 µM | – | 67 µM | 15 µM | Percent Tumor Growth Inhibition PC3 (Prostate) [7]: 48%
N.N.O=C(CCCC1C(=O)[O][Pt][O]C1=O)NC1C(O)OC(CO)C(O)C1O [(82), [Diammine][{3-(α,β-D-Glucopyranos-2-yl-amido)propyl}propanedioato(2-)-O,O′]Platinum (II)] | 300 µM | 112 µM | 800 µM | 11 µM | 133 µM | 142 µM | –
O=C1[O][Pt]2([NH]C3CCCCC3[NH]2)[O]C(=O)C1CCCC1OC(CO)C(O)C(O)C1O [(83), [1R, 2R-Cyclohexanediamine-N,N′][{3-(α,β-D-Mannopyranos-1-yl)propyl}propanedioato(2-)-O,O′]Platinum (II)] | 155 µM | 163 µM | 117 µM | 10 µM | 100 µM | 41 µM | –
NC1CCCCC1N.O=C1[O][Pt][O]C(=O)C1CCC1OC(CO)C(O)C(O)C1O [(88), [1R,2R-Cyclohexanediamine-N,N′][{2-(α,β-D-Glucopyranos-1-yl)ethyl}propanedioato(2-)-O,O′]Platinum (II)] | 260 µM | 98 µM | 226 µM | 13 µM | 112 µM | 31 µM | –
O=C1[O][Pt]2([NH]C3CCCCC3[NH]2)[O]C(=O)C1CCC1OC(CO)C(O)C(O)C1O (stereo not shown) [(93)] | 139 µM | 78 µM | 178 µM | 7 µM | 69 µM | 20 µM | –
N.N.O=C([O-])C1(C(=O)[O-])CCC1.[Pt+2] [Carboplatin, reference compound] | 712 µM | 94 µM | 515 µM | 64 µM | 290 µM | 123 µM | Percent Tumor Growth Inhibition HT29 (Colon) ([8]; 100 mg/kg): 47%; Percent Tumor Growth Inhibition Calu-6 (Lung) [9]: 56%; Percent Tumor Growth Inhibition ME180 (Cervical) [10]: 25%; Therapeutic Index MTD/Min Eff [11]: 2.3
N.N.[Cl][Pt][Cl] [Cisplatin, reference compound] | 149 µM | 4 µM | 30 µM | 1 µM | 31 µM | 10 µM | GI50 ([12]; HT29, 0 mM phloridzen, read-out: GI50 of Uptake in HT29 Cells, 0 mM Phoridzen): 261 µM; GI50 ([12]; HT29, 0.2 mM phloridzen, read-out: GI50 of Uptake in HT29 Cells, 0.2 mM Phoridzen): 194 µM; GI50 ([12]; HT29, 0.5 mM phloridzen, read-out: GI50 of Uptake in HT29 Cells, 0.5 mM Phoridzen): 192 µM; GI50 ([12]; HT29, 1.0 mM phloridzen, read-out: GI50 of Uptake in HT29 Cells, 1.0 mM Phoridzen): 254 µM; Percent Tumor Growth Inhibition HT29 (Colon) ([8]; 2 mg/kg): 69%
O=C1[O][Pt]2([NH][C@@H]3CCCC[C@H]3[NH]2)[O]C1=O [Oxaliplatin, oxaliplatin, reference compound] | 52 µM | 60 µM | 133 µM | 28 µM | 113 µM | 42 µM | Percent Tumor Growth Inhibition HT29 (Colon) ([8]; 5 mg/kg): 40%; Therapeutic Index MTD/Min Eff [11]: 2.0
